Reference: patent publication US8080582B2, “Derivatives of 8-epiblechnic acid and their effects on down-regulation of endothelin (ETA) receptor mRNA” (ScinoPharm Taiwan Ltd., priority 2008, dated 2011)
Entries after “also recorded” stand apart in the source; their conditions may differ.

Key:
Type in all cases: cell-based
[1] = test system: normal mammary gland cell line (A1N4); experiment: Cytotoxicity test on normal mammary gland cells; details: A1N4 normal mammary gland cells, FIG. 2
Experimental: (§1) The cells (1×10^5 cells/well in 24-well plates) were cultured for 24 hrs. Different concentrations of Sal-B and its analogs (0, 50, 100, 150, 200, 250 μg/ml) were added to treat the cells. After treating for 48 hrs, 100 μl MTT solution was added to each well, and the plate was placed in an incubator for 1-4 hrs. After adding 400 μl DMSO to treat the cells for 30 min., 200 μl samples were collected and placed in a 96-well plate to conduct the absorption measurement at 550 nm.

ETAR mRNA expression = experiment: Real-time quantitative RT-PCR of ETAR mRNA in smooth muscle cells (A10); details: A10 smooth muscle cells, 0.2 mM, 48 hrs, vs DMSO control, FIG. 4, read-out: ETAR mRNA remaining after the treatment
Experimental: Extraction of cellular RNA: Subculturing smooth muscle cells to 100-mm culture dishes. After the cells had filled the culture dishes, Sal-B and its analogs were added to treat the cells for 48 hrs. After that, 1×PBS solutions were added to wash the cells three times. After adding 1 ml TRIzol, the cells were scraped off and placed in 1.5 ml micro-centrifuge tubes. Following the addition of 0.2 ml chloroform to each tube, the tubes were shaken, left at room temperature for 3 min., and run in a centrifuge at 12,000 rpm for 15 min. The supernatant liquid was removed and the cells placed in new micro-centrifuge tubes. After adding an amount of isopropyl alcohol equivalent to one-half of the volume of the supernatant liquid, and mixing until homogeneous, the samples were allowed to stand at room temperature for 10 min. The supernatant liquid was removed after centrifugation at 12,000 rpm for 10 min. 1 ml 70% alcohol was added to wash out salts, followed by centrifugation for 5 min. and removal of supernatant liquid. The samples were dissolved in 50 μl DEPC-H2O after drying.
(1) cDNA synthesis: 1 μl Random hexamer primer (20 μM) and 1 μl dNTP(10 mm) were added to 3 μg RNA, which was allowed to react at 65° C. for 5 min., and then placed on ice promptly. After the addition of 2 μl 10× reaction buffer, 0.5 μl RNaseOUT (40 unit/μl) and 1 μl SuperScript III RT (200 unit/μl), the solution was mixed until homogeneous, and allowed to react at 50° C. for 50 min. After that, the mixture was heated to 85° C. for 5 min. to terminate the enzymatic reaction. The samples were preserved at −70° C. for later use.
(2) PCR quantitative analysis: After adding 7.5 μl PCR primer mix (400 nm each) and 15 μl SYBR Green dye reagent to the 7.5 μl cDNA template, the solution was placed in Bio-Rad's iCycler for PCR reaction. The resulting data was inputted into Gene Expression Analysis for iCycler iQ Real-Time PCR Detection System for quantitative analysis of gene expression.
Furthermore, after treating vascular smooth muscle cells with 100 μg/ml of either Sal-B or EBA for 48 hrs, the identical concentrations of cellular whole RNA were sampled for the synthesis of cDNA by using reverse transcriptase. The PCR method was employed to determine the amounts of endothelin receptor mRNA expression. […] For the analysis of ETAR mRNA expression by using the real-time PCR method, vascular smooth muscle cells at full confluence 100-mm culture dishes were treated with 100 μg/ml of either Sal-B or EBA for 48 hrs. The identical concentrations of cellular whole RNA were sampled for the synthesis of cDNA by using reverse transcriptase. The real-time PCR method was used to compare the amounts of ETAR mRNA expression.
The different analogs, compounds A to F, had different effects on ETAR mRNA expression. The control group represented treating smooth muscle cells (A10) with DMSO, and the positive control group represented treating the cells with Sal-B. The smooth muscle cells were treated with 0.2 mM Sal-B and compounds A to F for 48 hrs. The identical concentrations of cellular RNA were sampled for the synthesis of cDNA by using reverse transcriptase. The real-time PCR method was employed to determine the amounts of ETAR mRNA expression. Compared with the control group, compound B had the least effect on down-regulating ETAR mRNA expression, as approximately 50% of the ETAR mRNA remained after the treatment. […]

[2] = test system: prostate cancer cells (PC-3); experiment: MTT cell viability, prostate cancer cells; details: for Viability of PC-3 cells as the concentration is increased: PC-3, MTT, increasing concentration, FIG. 1
Experimental: as §1
(§2) Cancer cells were treated with Sal-B and EBA at concentrations of 0, 0.1, 0.2, 0.3, 0.4, 0.5 mM. After treating for 48 hrs, MTT was added, and then allowed to react for 3 hrs at 37° C. After that, DMSO was added and allowed to react for 30 min., the OD570 absorption values were measured. Cell viability was above 80% when nasopharyngeal cancer cells (Hone-1) were treated with […] Sal-B and EBA. […] But the cell viability remained above 70% for treating with 0.1 mM and 0.2 mM EBA. Similar results were obtained when prostate cancer cells (PC-3) were treated with the drugs: Cell viability was above 80% for treating PC-3 cells with 0.2 mM Sal-B or EBA.
MTT testing was employed to observe the viability of cancer cells after treating with Sal-B and the six synthetic analogs.

PC-3 cancer cells = experiment: Flow cytometry cell cycle analysis (sub-G1, apoptosis) of PC-3 cells; details: PC-3, 0.01 mM, 48 hrs, PI flow cytometry; control around 1.18%
Experimental: After suspending cells, the precooled 70% ethanol was used for fixing the cells. After centrifuging the mixture for 10 min. at 3,000 rpm, supernatant liquid was removed. Propidium iodide (PI) buffer (0.1% Triton X-100, 0.2 μg/ml RNase A, 40 μg/ml PI) was added, and then the solution was kept still at 37° C. for 30 min. After that, the cell cycle analysis was conducted by flow cytometry.
Flow cytometry was used to determine whether Sal-B and its analogs induced apoptosis in cancer cells. After treating PC-3 cancer cells with 0.4 mM Sal-B and EBA, and 0.01 mM compounds B and A for 48 hrs, the cells were collected and allowed to react with PI buffer for 30 min. Flow cytometry was then employed to measure the cell cycle. Approximately 5.16% of PC-3 cancer cells were at sub-G1 phase after treating with Sal-B, roughly 5.27% were at sub-G1 phase after treating with compound B, and roughly 8.54% were at sub-G1 phase after treating with compound A. However, for the control, only around 1.18% of the cells were at sub-G1 phase. Therefore, Sal-B and its analogs (compounds B and A) thus caused a significant increase in the percentage of cells at sub-G1 phase.

[3] = test system: Vascular smooth muscle cells (cell line A10); experiment: MTT cell viability / observation of normal vascular smooth muscle cells (A10); details: 48 hrs; for Precipitation in the treated sample: dissolved in DMSO, added to A10 cells, 0.2 mM
Experimental: as §1
Cell viability testing (MTT testing) was employed to determine the cytotoxicity of Sal-B and EBA to vascular smooth muscle cells. Vascular smooth muscle cells (cell line A10) were treated with Sal-B and EBA at concentrations of 0, 0.1, 0.2, 0.3, 0.4, and 0.5 mM. After treating for 48 hrs, MTT was added and allowed to react for 3 hrs at 37° C. Then, DMSO was added and allowed to react for 30 min., after that, the OD570 absorption values were measured. Cell viability was still 90% when the drug concentration reached 0.2 mM.
Sal-B's analogs, compounds A to F, were dissolved in DMSO, and then added to A10 cells to observe the results.

[4] = test system: nasopharyngeal cancer cells (Hone-1); experiment: MTT cell viability, nasopharyngeal cancer cells; details: Hone-1 cells, summary statement
Experimental: as §1, §2

Row | Structure (SMILES) | Cytotoxicity to normal cells [1] | mrna remaining at 200 µM (ETAR mRNA expression) [%] | Viability of PC-3 cells as the concentration is increased [2] | Toxicity to PC-3 cells relative to Sal-B ([2]; PC-3 cells, compared with Sal-B) | PC-3 cancer cells at sub-G1 phase (PC-3 cancer cells) | Cytotoxicity / cell death in A10 cells ([3]; A10 cells, 0.2 mM in DMSO) | Inhibition of growth of Hone-1 cells [4] | Precipitation in the treated sample [3]
1 | COC(=O)C(Cc1ccc(OC)c(OC)c1)NC(=O)/C=C/c1ccc(OC)c2c1C(C(=O)NC(Cc1ccc(OC)c(OC)c1)C(=O)OC)C(c1ccc(OC)c(OC)c1)O2 (stereo not drawn) [Compound A, 2-(3,4-dimethoxyphenyl)-7-methoxy-4-{(E)-2-[1-(methoxycarbonyl)-2-(3,4-dimethoxyphenyl)-ethylcarbamoyl]-vinyl}-2,3-dihydro-benzofuran-3-carboxylic acid-1-(methoxycarbonyl)-[2-(3,4-dimethoxyphenyl)-ethyl]-amide] | low toxicity to normal cells | < 20 | led to the similar results | ten times more toxic to PC-3 cells than Sal-B | roughly 8.54% | high level of cell death; also recorded: relatively high cytotoxicity | significantly inhibit the growth | –
2 | COC(=O)C(Cc1ccccc1)NC(=O)/C=C/c1ccc(OC)c2c1C(C(=O)NC(Cc1ccc(OC)c(OC)c1)C(=O)OC)C(c1ccc(OC)c(OC)c1)O2 (stereo not drawn) [Compound B, 2-(3,4-dimethoxyphenyl)-7-methoxy-4-{(E)-2-[1-(methoxycarbonyl)-2-phenyl-ethylcarbamoyl]-vinyl}-2,3-dihydro-benzofuran-3-carboxylic acid-1(methoxycarbonyl)-[2-(3,4-dimethoxyphenyl)-ethyl]-amide] | relatively toxic to normal cells | ~50 | led to the similar results | – | roughly 5.27% | – | significantly inhibit the growth | significant precipitation
3 | COC(=O)C(Cc1ccc(OC)c(OC)c1)NC(=O)/C=C/c1cc(OC)c2c(c1)C(C(=O)NC(Cc1ccc(OC)c(OC)c1)C(=O)OC)C(c1ccc(OC)c(OC)c1)O2 (stereo not drawn) [Compound C, 2-(3,4-dimethoxyphenyl)-7-methoxy-5-{(E)-2-[1-(methoxycarbonyl)-2-(3,4-dimethoxyphenyl)-ethylcarbamoyl]-vinyl}-2,3-dihydro-benzofuran-3-carboxylic acid-1-(methoxycarbonyl)-[2-(3,4-dimethoxyphenyl)-ethyl]-amide] | – | < 20 | – | – | – | – | – | –
4 | COC(=O)C1Cc2cc(OC)c(OC)cc2CN1C(=O)/C=C/c1cc(OC)c2c(c1)C(C(=O)N1Cc3cc(OC)c(OC)cc3CC1C(=O)OC)C(c1ccc(OC)c(OC)c1)O2 (stereo not drawn) [Compound E] | – | – | – | – | – | – | – | significant precipitation
